According to patent US20130085064A1, “PESTICIDAL MIXTURES CONTAINING ISOXAZOLINE DERIVATIVES AND INSECTICIDE OR NEMATOICIDAL BIOLOGICAL AGENT” (priority 2010, published 2013):
Values joined by “and” are separate entries in the source; they are usually repeats but may differ in a detail not shown here. Equal entries are not always repeated.

Assays:
Assay type in all cases: in vivo
[1] = system: Tetranychus urticae (two-spotted spider mite); assay: Tetranychus urticae bean leaf discs in 24-well microtiter plates, mixed population mortality; conditions: 8 days
Text: (§1) The action to be expected E for a given active ingredient combination obeys the so-called COLBY formula and can be calculated as follows (COLBY, S.R. “Calculating synergistic and antagonistic responses of herbicide combination”. Weeds, Vol. 15, pages 20-22; 1967):
(§2) ppm=milligrams of active ingredient (=a.i.) per liter of spray mixture X=% action by active ingredient A) using p ppm of active ingredient Y=% action by active ingredient B) using q ppm of active ingredient.
(§3) According to COLBY, the expected (additive) action of active ingredients A)+B) using p+q ppm of active ingredient is
(§4) If the action actually observed (O) is greater than the expected action (E), then the action of the combination is super-additive, i.e. there is a synergistic effect. In mathematical terms the synergism factor SF corresponds to O/E. In the agricultural practice an SF of ≧1.2 indicates significant improvement over the purely complementary addition of activities (expected activity), while an SF of ≦0.9 in the practical application routine signals a loss of activity compared to the expected activity.
Tetranychus Urticae (Two-Spotted Spider Mite)
Bean leaf discs on agar in 24-well microtiter plates are sprayed with test solutions (DMSO). After drying, the leaf discs are infested with mite populations of mixed ages. 8 days later, discs are checked for mixed population mortality.

[2] = system: Heliothis virescens (tobacco budworm); assay: Heliothis virescens ovo-larvicide, feeding/contact, eggs on filter paper in Petri dishes; conditions: for activity on eggs: egg mortality, 7 days incubation; for AVERAGE DEAD IN % (LARVAE): single compound, 7 days
Text: as §1, §2, §3, §4
Heliothis Virescens (Tobacco Budworm):
(Ovo-Larvicide, Feeding/Contact)
30-35 fresh eggs (0-24 h old), deposited on filter paper, are placed in Petri dishes on top of a layer of artificial diet and 0.8 ml of diluted test solutions are pipetted onto them. After an incubation period of 7 days, samples are checked for egg and larval mortality. 3 replicates per treatment were evaluated.

[3] = system: Tetranychus urticae (two spotted spider mite); assay: Tetranychus urticae contact/feeding activity on bean plants, adult mortality
Text: as §1, §2, §3, §4
Tetranychus Urticae (Two Spotted Spider Mite)
(Contact/Feeding Activity)
Bean plants are infested with mite populations of mixed ages. 1 day after infestation, plants are treated in a spray chamber with diluted test solutions. 1 and 8 days later, samples are checked for adult mortality. 2 replicates per treatment were evaluated.

[4] = system: Heliothis virescens (tobacco budworm); assay: Heliothis virescens eggs in 24-well microtiter plate on artificial diet, larval mortality
Text: as §1, §2, §3, §4
Heliothis Virescens (Tobacco Budworm)
Eggs (0-24 h old) are placed in 24-well microtiter plate on artificial diet and treated with test solutions (DMSO) by pipetting. After an incubation period of 4 days, samples are checked for larval mortality.

[5] = system: Spodoptera littoralis (Egyptian cotton leaf worm); assay: Spodoptera littoralis larvicide L1, feeding/contact, cotton leaf discs; conditions: single compound
Text: as §1, §2, §3, §4
Spodoptera Littoralis (Egyptian Cotton Leaf Worm)
(Larvicide L1, Feeding/Contact)
Cotton leaf discs are placed on agar in Petri dishes and sprayed with test solutions in an application chamber. After drying, the leaf discs are infested with 10 L1 larvae. The samples are checked for mortality 5 days after treatment. 3 replicates per treatment were evaluated. (1 PPM=1 mg l^−1)

abamectin
AVERAGE DEAD IN % ([1]; 0.0002 ppm alone): 0% | AVERAGE DEAD IN % ([1]; 0.0004 ppm alone): 0% | AVERAGE DEAD IN % ([1]; 0.0008 ppm alone): 0% | AVERAGE DEAD IN % ([1]; 0.0015 ppm alone): 0% | AVERAGE DEAD IN % ([1]; 0.003 ppm alone): 0% | AVERAGE DEAD IN % ([1]; 0.006 ppm alone): 0% | AVERAGE DEAD IN % ([1]; 0.0125 ppm alone): 0% | AVERAGE DEAD IN % ([1]; 0.025 ppm alone): 0% | AVERAGE DEAD IN % ([1]; 0.05 ppm alone): 85% | AVERAGE DEAD IN % ([1]; 0.1 ppm alone): 85% | AVERAGE DEAD IN % ([1]; Abamectin alone, 0.0002 ppm, Table 120): 0% | AVERAGE DEAD IN % ([1]; Abamectin alone, 0.0004 ppm, Table 120): 0% | AVERAGE DEAD IN % ([1]; Abamectin alone, 0.0008 ppm, Table 120): 0% | AVERAGE DEAD IN % ([1]; Abamectin alone, 0.0015 ppm, Table 120): 0% | AVERAGE DEAD IN % ([1]; Abamectin alone, 0.003 ppm, Table 120): 0% | AVERAGE DEAD IN % ([1]; Abamectin alone, 0.006 ppm, Table 120): 0% | AVERAGE DEAD IN % ([1]; Abamectin alone, 0.0125 ppm, Table 120): 0% | AVERAGE DEAD IN % ([1]; Abamectin alone, 0.025 ppm, Table 120): 0% | AVERAGE DEAD IN % ([1]; Abamectin alone, 0.05 ppm, Table 120): 70% | AVERAGE DEAD IN % ([1]; Abamectin alone, 0.1 ppm, Table 120): 80% | activity on eggs [2]: inactive | AVERAGE DEAD IN % (LARVAE) ([2]; 0.025 ppm AI): 3% | AVERAGE DEAD IN % (LARVAE) ([2]; 0.05 ppm AI): 37% | AVERAGE DEAD IN % (LARVAE) ([2]; 0.1 ppm AI): 53% | AVERAGE DEAD IN % AFTER 8 DAYS ([3]; 0.0015 ppm alone): 25% | AVERAGE DEAD IN % AFTER 8 DAYS ([3]; 0.003 ppm alone): 20% | AVERAGE DEAD IN % AFTER 8 DAYS ([3]; 0.006 ppm alone): 25% | AVERAGE DEAD IN % AFTER 1 DAY ([3]; Abamectin alone 0.0015 ppm AI): 0% | AVERAGE DEAD IN % AFTER 1 DAY ([3]; Abamectin alone 0.003 ppm AI): 0% | AVERAGE DEAD IN % AFTER 1 DAY ([3]; Abamectin alone 0.006 ppm AI): 0% | AVERAGE DEAD IN % ([4]; single compound at 0.2 ppm AI): 0% | AVERAGE DEAD IN % ([4]; single compound at 0.4 ppm AI): 45% | AVERAGE DEAD IN % ([4]; single compound at 0.8 ppm AI): 68% | AVERAGE DEAD IN % ([4]; single compound at 1.6 ppm AI): 78% | AVERAGE DEAD IN % ([4]; single compound at 3.2 ppm AI): 100% | AVERAGE DEAD IN % ([4]; single compound at 6.4 ppm AI): 100% | AVERAGE DEAD IN % AFTER 5 DAYS ([5]; 0.4 PPM AI): 10% and 7% | AVERAGE DEAD IN % AFTER 5 DAYS ([5]; 0.8 PPM AI): 13% and 10% | AVERAGE DEAD IN % AFTER 5 DAYS ([5]; 1.6 PPM AI): 40% and 20%

emamectin benzoate
activity on eggs [2]: inactive | AVERAGE DEAD IN % (LARVAE) ([2]; 0.0015 ppm AI): 5% | AVERAGE DEAD IN % (LARVAE) ([2]; 0.003 ppm AI): 5% | AVERAGE DEAD IN % (LARVAE) ([2]; 0.006 ppm AI): 10% | AVERAGE DEAD IN % AFTER 8 DAYS ([3]; 0.0125 ppm alone): 5% | AVERAGE DEAD IN % AFTER 8 DAYS ([3]; 0.025 ppm alone): 23% | AVERAGE DEAD IN % AFTER 8 DAYS ([3]; 0.05 ppm alone): 38% | AVERAGE DEAD IN % AFTER 1 DAY ([3]; Emamectin benzoate alone 0.0125 ppm AI): 0% | AVERAGE DEAD IN % AFTER 1 DAY ([3]; Emamectin benzoate alone 0.025 ppm AI): 8% | AVERAGE DEAD IN % AFTER 1 DAY ([3]; Emamectin benzoate alone 0.05 ppm AI): 0% | AVERAGE DEAD IN % ([4]; single compound at 0.00075 ppm AI): 0% | AVERAGE DEAD IN % ([4]; single compound at 0.0015 ppm AI): 0% | AVERAGE DEAD IN % ([4]; single compound at 0.003 ppm AI): 0% | AVERAGE DEAD IN % ([4]; single compound at 0.006 ppm AI): 0% | AVERAGE DEAD IN % ([4]; single compound at 0.012 ppm AI): 55% | AVERAGE DEAD IN % ([4]; single compound at 0.024 ppm AI): 93% | AVERAGE DEAD IN % AFTER 5 DAYS ([5]; 0.003125 PPM AI): 20% | AVERAGE DEAD IN % AFTER 5 DAYS ([5]; 0.00625 PPM AI): 23% | AVERAGE DEAD IN % AFTER 5 DAYS ([5]; 0.0125 PPM AI): 30% and 27%
